These are literature values, as cited in US20180318450A1, “ENHANCED SURGICAL VISUALIZATION OF VIABLE TISSUE WITH SELECTIVE DYE” (priority 2017, published 2018).

Each structure is given as a SMILES string. Starred links: 1 amine or outer side, 2 acyl side, 3 side chain; linkers in the order of their positions; H or OH if unused. Positions of bridges follow the written chain, without caps; N, C: chain ends. Non-standard residues stand in square brackets, D forms with d. Residues, ends and D or L forms follow the SMILES beside them. Trp(2-yl) = O=C([C@H](Cc1c([*:3])[nH]c2ccccc12)N[*:1])[*:2]; Leu(4R-OH,5-OH) = C[C@](O)(CO)C[C@H](N)C(=O)O; cisHyp = O=C(O)[C@@H]1C[C@H](O)CN1

The test system of the series is tumor proliferation. The conditions noted are these: toxin attached to C-terminus of ph low insertion peptide, cells in acidic environment.

As for `C[C@@H]1NC(=O)[C@H](C[C@@](C)(O)CO)NC(=O)[C@@H]2Cc3c([nH]c4ccccc34)SC[C@H](NC(=O)[C@@H]([C@H](C)O)NC1=O)C(=O)N1C[C@@H](O)C[C@H]1C(=O)N[C@@H](C)C(=O)N2` [phalloidin] (cyclo(A[dT]C[cisHyp]A[Trp(2-yl)][Leu(4R-OH,5-OH)]); thioether 3-6), the tumor proliferation result was “prohibited tumor proliferation”.
